Two compounds from patent US20070032464A1, “Methods of treating cancers” (priority 2004, published 2007) can be followed below.

The target of experiment [1] is T1, liver X receptor beta (i.e., UR) (Rattus norvegicus, UniProt Q62755).
T1 sequence (Q62755 1-446): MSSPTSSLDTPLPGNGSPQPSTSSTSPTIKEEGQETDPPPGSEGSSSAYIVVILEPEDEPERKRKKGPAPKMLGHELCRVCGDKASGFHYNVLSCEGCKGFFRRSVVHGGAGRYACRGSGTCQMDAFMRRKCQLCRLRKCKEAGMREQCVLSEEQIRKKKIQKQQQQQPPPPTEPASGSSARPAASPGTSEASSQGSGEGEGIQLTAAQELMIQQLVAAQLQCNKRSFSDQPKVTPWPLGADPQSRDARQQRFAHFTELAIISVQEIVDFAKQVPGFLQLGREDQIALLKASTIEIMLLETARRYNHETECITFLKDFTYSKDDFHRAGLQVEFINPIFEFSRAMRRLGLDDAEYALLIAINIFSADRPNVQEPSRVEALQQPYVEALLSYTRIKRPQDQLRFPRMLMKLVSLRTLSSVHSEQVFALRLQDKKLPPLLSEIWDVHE
T1 sequence (P19793 1-462 partner): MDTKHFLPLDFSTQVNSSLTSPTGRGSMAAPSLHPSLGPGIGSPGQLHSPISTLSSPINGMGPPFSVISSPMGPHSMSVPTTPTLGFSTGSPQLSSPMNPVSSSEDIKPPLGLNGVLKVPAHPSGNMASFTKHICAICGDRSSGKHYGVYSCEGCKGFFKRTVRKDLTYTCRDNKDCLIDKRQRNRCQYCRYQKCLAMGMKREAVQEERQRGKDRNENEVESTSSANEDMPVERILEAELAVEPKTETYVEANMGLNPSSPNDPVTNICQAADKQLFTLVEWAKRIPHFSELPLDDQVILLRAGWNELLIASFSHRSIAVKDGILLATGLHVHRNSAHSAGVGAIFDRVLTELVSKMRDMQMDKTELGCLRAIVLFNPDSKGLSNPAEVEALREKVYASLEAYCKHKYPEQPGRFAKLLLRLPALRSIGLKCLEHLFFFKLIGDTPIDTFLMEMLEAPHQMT
Description: gene transactivation (luciferase reporter) assay in human embryonic kidney 293 cells, liver X receptor beta (UR). Type of experiment: cell-based. The following applies: 1 to 10 μM. As for the experimental part:
(§1) See, e.g., Song, C. et al., Steroids, 2000, 65, 423-427.
(§2) Specifically, human embryonic kidney 293 cells were seeded into a 48-well culture plate at 10^5 cells per well in a Dulbecco's modified Eagle's medium (DMEM) supplemented with 10% fetal bovine serum. After incubation for 24 hours, the cells were transfected by the calcium phosphate coprecipitation method with 250 ng of a pGL3/UREluc reporter gene that consisted of three copies of AGGTCAagccAGGTCA fused to nucleotides −56 to +109 of the human c-fos promoter in front of the firefly luciferase gene in the plasmid basic pGL3 (Promega, Madison, Wis.), 40 ng pSG5/hRXRα, 40 ng pSG5/rUR or CMX/hliver X receptorα, 10 ng pSG5/hGrip1, 0.4 ng CMV/R-luc (transfection normalization reporter, Promega) and 250 ng carrier DNA per well. […]
(§3) After incubation for another 12 to 24 hours, the cells were washed with phosphate buffer saline and then refed with DMEM supplemented with 4% delipidated fetal bovine serum. […] After incubation for another 24 to 48 hours, the cells were harvested and the luciferase activity was measured with a commercial kit (Promega Dual luciferase II) on a Monolight luminometer (Becton Dickenson, Mountain View, Calif.).

For another experiment, the target named is T2, liver X receptor alpha (Homo sapiens, UniProt Q13133).
T2 sequence (Q13133 1-447): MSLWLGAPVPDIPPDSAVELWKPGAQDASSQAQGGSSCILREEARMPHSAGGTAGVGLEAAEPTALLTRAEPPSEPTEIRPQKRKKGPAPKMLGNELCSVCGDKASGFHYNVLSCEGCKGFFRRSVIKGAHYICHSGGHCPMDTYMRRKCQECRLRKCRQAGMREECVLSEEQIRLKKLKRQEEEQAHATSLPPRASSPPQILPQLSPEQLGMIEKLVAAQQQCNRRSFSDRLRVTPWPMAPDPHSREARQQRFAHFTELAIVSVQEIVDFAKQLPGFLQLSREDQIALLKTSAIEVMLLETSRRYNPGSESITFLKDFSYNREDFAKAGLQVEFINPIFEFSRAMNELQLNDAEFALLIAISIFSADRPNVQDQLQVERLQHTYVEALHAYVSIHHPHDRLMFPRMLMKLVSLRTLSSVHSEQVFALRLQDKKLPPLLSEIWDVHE
T2 sequence (P19793 1-462 partner): T1 sequence (P19793 1-462 partner)
In words: gene transactivation (luciferase reporter) assay in human embryonic kidney 293 cells, liver X receptor alpha. Type of experiment: cell-based. The following applies: 1 to 10 μM. As for the experimental part:
as §1, §2, §3
(In general: Reporter assays use an easily measured gene product as a stand-in for the process of interest.)

For `CON(C)C(=O)CC[C@@H](C)[C@H]1CC[C@H]2[C@@H]3C[C@H](O)[C@@H]4C[C@H](O)CC[C@]4(C)[C@H]3CC[C@]12C` [hypocholamide, N-methyl-N-methoxy-3α,6α-dihydroxy-5β-cholanoic acid-24-amide], the “liver X receptor beta (UR) agonistic activity” value in experiment [1] is reported as “unexpectedly potent agonists”. Besides, the “liver X receptor alpha agonistic activity” value on liver X receptor alpha is given as “unexpectedly potent agonists”.
In the case of `CC(CCC(O)(C(F)(F)F)C(F)(F)F)C1CCC2C3CC(O)C4CC(O)CCC4(C)C3CCC12C` (stereo not drawn) [hypocholaride, 3α,6α,24-trihydroxy-5β-24,24-di(trifluoromethyl)-cholestane], in experiment [1], the “liver X receptor beta (UR) agonistic activity” value is “unexpectedly potent agonists”. Besides, at liver X receptor alpha, the “liver X receptor alpha agonistic activity” value was “unexpectedly potent agonists”.
